Source: paper PMC8120209, “Longitudinal evaluation of a novel BChE PET tracer as an early in vivo biomarker in the brain of a mouse model for Alzheimer disease” (Theranostics, 2021)

Key:
[1] = molecular target: T1, 5-HT3(h) (Homo sapiens, UniProt P46098); assay: biochemical; design: Eurofins SafetyScreen44 radioligand displacement, inhibition of control specific binding; settings: read-out: % Inhibition of Control Specific Binding, Mean
T1 construct: gene HTR3A

[2] = molecular target: T2, β2(h) (Homo sapiens, UniProt P07550); assay: biochemical; design: Eurofins SafetyScreen44 radioligand displacement, inhibition of control specific binding; settings: read-out: % Inhibition of Control Specific Binding, Mean
T2 construct: gene ADRB2
T2 sequence (P07550 whole entry): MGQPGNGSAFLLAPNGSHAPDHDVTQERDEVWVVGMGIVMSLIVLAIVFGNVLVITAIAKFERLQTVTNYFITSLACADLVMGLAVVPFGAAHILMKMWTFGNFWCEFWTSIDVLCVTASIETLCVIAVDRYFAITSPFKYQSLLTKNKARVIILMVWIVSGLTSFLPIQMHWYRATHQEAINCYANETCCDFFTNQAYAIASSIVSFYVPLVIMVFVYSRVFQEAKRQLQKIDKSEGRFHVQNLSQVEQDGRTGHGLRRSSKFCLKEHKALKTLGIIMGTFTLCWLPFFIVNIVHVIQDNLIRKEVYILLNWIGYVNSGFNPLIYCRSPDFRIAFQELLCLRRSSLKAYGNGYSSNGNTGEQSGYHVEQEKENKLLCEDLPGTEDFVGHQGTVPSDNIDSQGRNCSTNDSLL

[3] = molecular target: T3, CB2(h) (Homo sapiens, UniProt P34972); assay: biochemical; design: Eurofins SafetyScreen44 radioligand displacement, inhibition of control specific binding; settings: read-out: % Inhibition of Control Specific Binding, Mean
T3 construct: gene CNR2
T3 sequence (P34972 whole entry): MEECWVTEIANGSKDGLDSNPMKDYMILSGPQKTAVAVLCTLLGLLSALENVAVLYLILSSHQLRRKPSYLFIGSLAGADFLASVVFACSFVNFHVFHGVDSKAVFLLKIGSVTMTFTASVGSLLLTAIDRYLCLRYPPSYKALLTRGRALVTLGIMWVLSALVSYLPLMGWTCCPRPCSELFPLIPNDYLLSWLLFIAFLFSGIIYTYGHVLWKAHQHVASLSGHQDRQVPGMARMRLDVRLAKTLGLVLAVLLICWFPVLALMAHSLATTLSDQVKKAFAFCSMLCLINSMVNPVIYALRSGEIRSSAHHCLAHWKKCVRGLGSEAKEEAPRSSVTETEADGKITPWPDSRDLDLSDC

[4] = molecular target: T4, 5-HT5a(h) (Homo sapiens, UniProt P47898); assay: biochemical; design: Eurofins SafetyScreen44 radioligand displacement, inhibition of control specific binding; settings: read-out: % Inhibition of Control Specific Binding, Mean
T4 construct: gene HTR5A

[5] = molecular target: T5, M3(h) (Homo sapiens, UniProt P20309); assay: biochemical; design: Eurofins SafetyScreen44 radioligand displacement, inhibition of control specific binding; settings: read-out: % Inhibition of Control Specific Binding, Mean
T5 construct: gene CHRM3
T5 sequence (P20309 whole entry): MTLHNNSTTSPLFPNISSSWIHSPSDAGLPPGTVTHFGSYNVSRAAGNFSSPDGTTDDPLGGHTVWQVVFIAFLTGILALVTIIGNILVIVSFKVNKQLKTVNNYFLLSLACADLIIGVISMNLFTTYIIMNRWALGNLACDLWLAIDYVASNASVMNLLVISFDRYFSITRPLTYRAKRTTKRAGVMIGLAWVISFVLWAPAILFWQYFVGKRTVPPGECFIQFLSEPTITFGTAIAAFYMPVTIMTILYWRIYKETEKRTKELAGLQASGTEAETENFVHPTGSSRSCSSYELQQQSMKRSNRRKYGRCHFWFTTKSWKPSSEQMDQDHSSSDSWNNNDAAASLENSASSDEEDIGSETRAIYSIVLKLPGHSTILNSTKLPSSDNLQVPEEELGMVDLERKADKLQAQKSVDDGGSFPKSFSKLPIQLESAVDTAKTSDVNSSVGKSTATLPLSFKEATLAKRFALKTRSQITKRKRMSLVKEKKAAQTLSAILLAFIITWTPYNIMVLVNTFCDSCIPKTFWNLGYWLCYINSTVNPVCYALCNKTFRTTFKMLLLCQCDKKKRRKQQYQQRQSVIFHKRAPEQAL

[6] = molecular target: T6, H2(h) (Homo sapiens, UniProt P25021); assay: biochemical; design: Eurofins SafetyScreen44 radioligand displacement, inhibition of control specific binding; settings: read-out: % Inhibition of Control Specific Binding, Mean
T6 construct: gene HRH2
T6 sequence (P25021 whole entry): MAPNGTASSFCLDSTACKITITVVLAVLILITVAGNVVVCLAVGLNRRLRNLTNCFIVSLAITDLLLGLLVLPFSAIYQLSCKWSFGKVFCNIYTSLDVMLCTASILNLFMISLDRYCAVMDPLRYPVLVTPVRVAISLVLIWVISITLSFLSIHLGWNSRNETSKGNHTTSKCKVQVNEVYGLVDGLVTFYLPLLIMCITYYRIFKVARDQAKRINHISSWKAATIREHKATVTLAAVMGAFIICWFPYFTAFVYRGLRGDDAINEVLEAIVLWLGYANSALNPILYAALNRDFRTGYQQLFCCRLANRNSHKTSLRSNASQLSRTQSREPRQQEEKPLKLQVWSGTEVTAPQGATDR

[7] = molecular target: T7, D5(h) (Homo sapiens, UniProt P21918); assay: biochemical; design: Eurofins SafetyScreen44 radioligand displacement, inhibition of control specific binding; settings: read-out: % Inhibition of Control Specific Binding, Mean
T7 construct: gene DRD5
T7 sequence (P21918 whole entry): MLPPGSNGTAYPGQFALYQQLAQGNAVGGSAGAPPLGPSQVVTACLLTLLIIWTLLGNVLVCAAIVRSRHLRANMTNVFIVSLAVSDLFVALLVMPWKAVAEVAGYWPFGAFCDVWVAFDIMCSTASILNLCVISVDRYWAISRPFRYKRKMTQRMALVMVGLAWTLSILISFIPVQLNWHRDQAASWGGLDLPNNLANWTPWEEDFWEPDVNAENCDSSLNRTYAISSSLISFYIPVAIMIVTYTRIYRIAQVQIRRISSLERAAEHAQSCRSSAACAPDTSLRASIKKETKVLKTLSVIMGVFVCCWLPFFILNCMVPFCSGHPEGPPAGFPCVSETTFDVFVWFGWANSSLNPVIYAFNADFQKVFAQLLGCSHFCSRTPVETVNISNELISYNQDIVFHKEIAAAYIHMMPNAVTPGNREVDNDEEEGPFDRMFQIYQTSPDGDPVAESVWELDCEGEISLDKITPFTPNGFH

[8] = molecular target: T8, δ (DOP) (h) (Homo sapiens, UniProt P41143); assay: biochemical; design: Eurofins SafetyScreen44 radioligand displacement, inhibition of control specific binding; settings: read-out: % Inhibition of Control Specific Binding, Mean
T8 construct: gene OPRD1

[9] = molecular target: T9, V1a(h) (Homo sapiens, UniProt P37288); assay: biochemical; design: Eurofins SafetyScreen44 radioligand displacement, inhibition of control specific binding; settings: read-out: % Inhibition of Control Specific Binding, Mean
T9 construct: gene AVPR1A
T9 sequence (P37288 whole entry): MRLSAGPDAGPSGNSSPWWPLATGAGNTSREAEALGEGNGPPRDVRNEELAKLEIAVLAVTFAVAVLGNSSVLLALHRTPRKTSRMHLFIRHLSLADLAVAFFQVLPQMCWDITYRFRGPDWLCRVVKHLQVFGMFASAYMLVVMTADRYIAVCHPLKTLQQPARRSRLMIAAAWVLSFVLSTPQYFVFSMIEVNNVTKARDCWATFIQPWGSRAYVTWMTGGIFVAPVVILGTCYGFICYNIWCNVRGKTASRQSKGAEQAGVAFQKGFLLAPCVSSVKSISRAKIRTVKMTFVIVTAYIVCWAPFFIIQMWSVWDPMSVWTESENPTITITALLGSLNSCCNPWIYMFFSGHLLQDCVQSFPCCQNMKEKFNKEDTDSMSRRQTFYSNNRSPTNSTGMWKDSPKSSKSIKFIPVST

[10] = molecular target: Lck kinase (h) (Homo sapiens, UniProt P06239); assay: biochemical; design: Eurofins SafetyScreen44 enzyme assays, inhibition of control specific activity; settings: read-out: % Inhibition of Control Values, Mean
[11] = molecular target: T10, adrenergic receptor α1A (Homo sapiens, UniProt P35348); assay: SafetyScreen44 panel (Eurofins), single concentration […]; settings: read-out: % inhibition at 10 μM
T10 construct: gene ADRA1A
T10 sequence (P35348 1-466): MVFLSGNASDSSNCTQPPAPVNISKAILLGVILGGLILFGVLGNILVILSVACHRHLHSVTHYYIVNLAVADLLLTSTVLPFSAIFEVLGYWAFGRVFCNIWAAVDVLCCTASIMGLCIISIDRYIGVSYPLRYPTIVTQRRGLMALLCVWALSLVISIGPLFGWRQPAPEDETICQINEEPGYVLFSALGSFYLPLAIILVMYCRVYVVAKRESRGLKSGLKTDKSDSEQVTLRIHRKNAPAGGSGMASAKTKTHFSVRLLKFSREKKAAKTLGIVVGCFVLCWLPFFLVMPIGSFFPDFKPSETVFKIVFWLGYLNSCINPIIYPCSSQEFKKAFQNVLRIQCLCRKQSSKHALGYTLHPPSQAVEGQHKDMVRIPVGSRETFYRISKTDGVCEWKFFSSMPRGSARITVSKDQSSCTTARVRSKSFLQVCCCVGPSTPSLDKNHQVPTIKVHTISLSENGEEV

[12] = molecular target: T11, N neuronal α4β2 (h) (Homo sapiens, UniProt P17787+P43681); assay: biochemical; design: Eurofins SafetyScreen44 radioligand displacement, inhibition of control specific binding; settings: read-out: % Inhibition of Control Specific Binding, Mean
T11 construct: gene CHRNB2

[13] = molecular target: T12, COX2(h) (Homo sapiens, UniProt P35354); assay: biochemical; design: Eurofins SafetyScreen44 enzyme assays, inhibition of control specific activity; settings: read-out: % Inhibition of Control Values, Mean
T12 construct: gene PTGS2
T12 sequence (P35354 whole entry): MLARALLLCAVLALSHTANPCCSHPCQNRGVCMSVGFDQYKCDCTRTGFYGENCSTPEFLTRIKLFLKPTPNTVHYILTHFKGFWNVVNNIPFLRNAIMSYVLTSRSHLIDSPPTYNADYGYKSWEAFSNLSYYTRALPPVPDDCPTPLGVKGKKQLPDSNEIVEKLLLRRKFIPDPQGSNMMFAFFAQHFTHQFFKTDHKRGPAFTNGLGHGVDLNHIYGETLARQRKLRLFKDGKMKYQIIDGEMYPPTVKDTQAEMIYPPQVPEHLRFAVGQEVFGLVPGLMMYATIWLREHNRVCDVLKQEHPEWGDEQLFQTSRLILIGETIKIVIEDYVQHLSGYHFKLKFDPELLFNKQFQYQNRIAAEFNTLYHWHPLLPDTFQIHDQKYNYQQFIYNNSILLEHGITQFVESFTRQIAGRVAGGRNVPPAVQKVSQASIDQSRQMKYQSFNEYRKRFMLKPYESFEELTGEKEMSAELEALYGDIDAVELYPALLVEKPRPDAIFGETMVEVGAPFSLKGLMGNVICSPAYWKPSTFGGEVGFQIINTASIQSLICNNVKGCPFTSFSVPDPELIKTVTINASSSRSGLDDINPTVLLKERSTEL

[14] = molecular target: T13, N neuronal α7 (h) (Homo sapiens, UniProt P36544); assay: biochemical; design: Eurofins SafetyScreen44 radioligand displacement, inhibition of control specific binding; settings: read-out: % Inhibition of Control Specific Binding, Mean
T13 construct: gene CHRNA7

[15] = molecular target: T14, kappa (h) (KOP) (Homo sapiens, UniProt P41145); assay: biochemical; design: Eurofins SafetyScreen44 radioligand displacement, inhibition of control specific binding; settings: read-out: % Inhibition of Control Specific Binding, Mean
T14 construct: gene OPRK1

[16] = molecular target: T15, 5-HT2A(h) (Homo sapiens, UniProt P28223); assay: biochemical; design: Eurofins SafetyScreen44 radioligand displacement, inhibition of control specific binding; settings: read-out: % Inhibition of Control Specific Binding, Mean
T15 construct: gene HTR2A

[17] = molecular target: T16, 5-HT1A(h) (Homo sapiens, UniProt P08908); assay: biochemical; design: Eurofins SafetyScreen44 radioligand displacement, inhibition of control specific binding; settings: read-out: % Inhibition of Control Specific Binding, Mean
T16 construct: gene HTR1A
T16 sequence (P08908 whole entry): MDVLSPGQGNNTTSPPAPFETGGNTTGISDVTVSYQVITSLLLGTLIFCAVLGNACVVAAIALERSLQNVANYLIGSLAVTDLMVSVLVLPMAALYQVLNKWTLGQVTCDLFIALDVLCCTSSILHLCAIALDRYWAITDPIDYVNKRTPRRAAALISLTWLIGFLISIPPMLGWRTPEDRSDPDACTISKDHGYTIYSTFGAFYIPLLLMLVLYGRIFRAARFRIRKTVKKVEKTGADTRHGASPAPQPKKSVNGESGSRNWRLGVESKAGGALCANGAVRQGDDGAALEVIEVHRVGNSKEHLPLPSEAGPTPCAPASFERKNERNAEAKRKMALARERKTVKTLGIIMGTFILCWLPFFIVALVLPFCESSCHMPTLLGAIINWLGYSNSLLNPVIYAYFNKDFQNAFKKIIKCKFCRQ

[18] = molecular target: PDE3A (h) (Homo sapiens, UniProt Q14432); assay: biochemical; design: Eurofins SafetyScreen44 enzyme assays, inhibition of control specific activity; settings: read-out: % Inhibition of Control Values, Mean
Chain of PDE3A (h) (Q14432 whole entry): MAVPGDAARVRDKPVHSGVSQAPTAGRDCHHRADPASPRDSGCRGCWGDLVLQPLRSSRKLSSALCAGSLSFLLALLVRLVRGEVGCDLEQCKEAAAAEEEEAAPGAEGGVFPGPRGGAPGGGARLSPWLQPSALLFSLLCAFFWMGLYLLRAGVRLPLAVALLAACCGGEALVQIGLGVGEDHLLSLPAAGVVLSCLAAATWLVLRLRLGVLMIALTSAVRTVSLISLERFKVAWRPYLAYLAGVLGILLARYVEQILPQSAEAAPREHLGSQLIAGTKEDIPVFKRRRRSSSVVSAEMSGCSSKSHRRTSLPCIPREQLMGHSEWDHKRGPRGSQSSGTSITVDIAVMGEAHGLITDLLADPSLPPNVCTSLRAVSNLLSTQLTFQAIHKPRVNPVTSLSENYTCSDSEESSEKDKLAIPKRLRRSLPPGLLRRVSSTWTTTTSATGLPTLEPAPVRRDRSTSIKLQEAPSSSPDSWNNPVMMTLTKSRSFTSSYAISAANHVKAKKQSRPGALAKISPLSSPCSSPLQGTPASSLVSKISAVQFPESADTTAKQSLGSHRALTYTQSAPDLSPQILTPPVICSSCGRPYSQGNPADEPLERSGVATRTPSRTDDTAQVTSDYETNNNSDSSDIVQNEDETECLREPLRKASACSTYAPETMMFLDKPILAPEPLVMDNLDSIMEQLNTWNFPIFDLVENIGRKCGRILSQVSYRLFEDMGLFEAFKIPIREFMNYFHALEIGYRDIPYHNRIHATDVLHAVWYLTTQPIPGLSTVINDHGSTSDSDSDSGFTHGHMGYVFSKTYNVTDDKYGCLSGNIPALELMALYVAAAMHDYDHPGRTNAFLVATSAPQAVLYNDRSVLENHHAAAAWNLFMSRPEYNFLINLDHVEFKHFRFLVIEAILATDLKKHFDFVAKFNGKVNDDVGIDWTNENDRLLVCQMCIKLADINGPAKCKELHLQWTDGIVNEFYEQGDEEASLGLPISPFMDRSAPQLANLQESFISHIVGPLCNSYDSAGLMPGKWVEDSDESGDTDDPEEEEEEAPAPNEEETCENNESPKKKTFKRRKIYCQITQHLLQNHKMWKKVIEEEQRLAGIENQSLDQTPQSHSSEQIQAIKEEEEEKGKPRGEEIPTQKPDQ

[19] = molecular target: T17, M2 (h) (Homo sapiens, UniProt P08172); assay: biochemical; design: Eurofins SafetyScreen44 radioligand displacement, inhibition of control specific binding; settings: read-out: % Inhibition of Control Specific Binding, Mean
T17 construct: gene CHRM2

[20] = molecular target: T18, D1(h) (Homo sapiens, UniProt P21728); assay: biochemical; design: Eurofins SafetyScreen44 radioligand displacement, inhibition of control specific binding; settings: read-out: % Inhibition of Control Specific Binding, Mean
T18 construct: gene DRD1

[21] = molecular target: T19, dopamine transporter(h) (Homo sapiens, UniProt Q01959); assay: biochemical; design: Eurofins SafetyScreen44 radioligand displacement, inhibition of control specific binding; settings: read-out: % Inhibition of Control Specific Binding, Mean
T19 construct: gene SLC6A3

[22] = molecular target: T20, 5-HT transporter (h) (Homo sapiens, UniProt P31645); assay: biochemical; design: Eurofins SafetyScreen44 radioligand displacement, inhibition of control specific binding; settings: read-out: % Inhibition of Control Specific Binding, Mean
T20 construct: gene SLC6A4

COCCN(CC1CCCN(Cc2ccccc2)C1)S(=O)(=O)c1ccc2ccccc2c1 (racemic) [compound 4, (±)N-((1-benzylpiperidin-3-yl)methyl)-N-(2-methoxyethyl)naphthalene-2-sulfonamide]
inhibition at 10 µM [1]: -2.7%
inhibition at 10 µM [2]: 10.5%
inhibition at 10 µM [3]: 17.6%
inhibition at 10 µM [4]: 42.5%
inhibition at 10 µM [5]: 35.2%
inhibition at 10 µM [6]: 27%
inhibition at 10 µM [7]: 24.2%
inhibition at 10 µM [8]: 32.8%
inhibition at 10 µM [9]: 33.8%
inhibition at 10 µM [10]: 52.7%
inhibition at 10 µM [11]: 71.7%
inhibition at 10 µM [12]: -17.7%
inhibition at 10 µM [13]: 2.2%
inhibition at 10 µM [14]: 18.2%
inhibition at 10 µM [15]: 26.1%
inhibition at 10 µM [16]: 93%
inhibition at 10 µM [17]: 96.2%
inhibition at 10 µM [18]: 7%
inhibition at 10 µM [19]: 85.7%
inhibition at 10 µM [20]: 32.4%
inhibition at 10 µM [21]: 26%
inhibition at 10 µM [22]: 12.7%
